Test results as given in patent US9221792B2, “N-(4-(azetidine-1-carbonyl) phenyl)-(hetero-) arylsulfonamide derivatives as pyruvate kinase M2 (PMK2) modulators” (AGIOS PHARMACEUTICALS, INC, priority 2010, dated 2015).

molecular target: PKM2 (Homo sapiens, UniProt P14618); test: PKM2 Assay (activation, LDH-coupled NADH absorbance at 340 nm); format: biochemical; conditions: activation of PKM2; PKM2 50 ng/well, ADP 0.7 mM, PEP 0.15 mM, room temperature (25° C.); read-out: AC50
Description: • PKM2 stock enzyme solution was diluted in Reaction Buffer • 2 μL of compound was added into each well first, and then 180 μL of the Reaction Mix was added. • Reaction mixture with compound (without ADP) were incubated for 30 minutes at 4° C. • Plates were re-equilibrated to room temperature prior to adding 20 μL ADP to initiate the reaction. • Reaction progress was measured as changes in absorbance at 340 nm wavelength at room temperature (25° C.) Reaction Mix: PKM2 (50 ng/well), ADP (0.7 mM), PEP (0.15 mM), NADH (180 μM), LDH (2 units) in Reaction Buffer Reaction Buffer: 100 mM KCl, 50 mM Tris pH 7.5, 5 mM MgCl2, 1 mM DTT, 0.03% BSA.
Certain compounds of Formula I were tested in the above-described assay. A compound described herein may be tested for its ability to activate PKM2. The activation activity of these compounds is represented as an AC50 in Table 2 and throughout the application. […] “B” refers to an activator of PKM2 with an EC50 between 100 nM and 1 μM. “C” refers to an activator of PKM2 with an EC50 between 1 μM and 10 μM. “D” refers to an activator of PKM2 with an EC50 greater than 10 μM. “NA” refers to data that is not available.

Chain of PKM2 (P14618 whole entry): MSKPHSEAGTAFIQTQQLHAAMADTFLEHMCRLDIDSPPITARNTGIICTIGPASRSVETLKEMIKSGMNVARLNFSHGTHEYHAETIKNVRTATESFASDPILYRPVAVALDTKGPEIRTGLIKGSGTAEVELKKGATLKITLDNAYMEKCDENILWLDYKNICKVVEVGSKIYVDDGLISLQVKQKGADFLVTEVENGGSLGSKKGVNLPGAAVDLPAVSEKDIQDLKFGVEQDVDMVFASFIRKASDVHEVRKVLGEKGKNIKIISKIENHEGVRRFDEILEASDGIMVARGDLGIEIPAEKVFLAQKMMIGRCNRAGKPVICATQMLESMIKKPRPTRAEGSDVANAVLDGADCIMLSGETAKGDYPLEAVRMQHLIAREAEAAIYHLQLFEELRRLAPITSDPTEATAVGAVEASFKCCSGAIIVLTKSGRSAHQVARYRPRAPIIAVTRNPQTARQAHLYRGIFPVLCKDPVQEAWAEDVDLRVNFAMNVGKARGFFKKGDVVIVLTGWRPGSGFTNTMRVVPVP

Row | AC50 [µM] | SMILES
1 | 0.1 to 1 | O=C(c1ccc(NS(=O)(=O)c2cccc3cccnc23)c(F)c1)N1CC(Nc2ccccc2)C1 [Compound 118]
2 | 1 to 10 | O=C(OC1CN(C(=O)c2ccc(NS(=O)(=O)c3cccc4cccnc34)cc2)C1)c1ccccn1 [Compound 102, 1-(4-(Quinoline-8-sulfonamido)benzoyl)azetidin-3-yl picolinate]
3 | 0.1 to 1 | Cc1cc(C(=O)N2CC(NC(=O)NC(C)C)C2)ccc1NS(=O)(=O)c1cccc2cccnc12 [Compound 164]
4 | < 0.1 | COc1cccnc1NC1CN(C(=O)c2ccc(NS(=O)(=O)c3cccc4cccnc34)c(C)c2)C1 [Compound 149]
5 | 0.1 to 1 | Cc1cc(C(=O)N2CC(N(C)Cc3ccccc3)C2)ccc1NS(=O)(=O)c1cccc2cccnc12 [Compound 109, N-(4-(3-(benzyl(methyl)amino)azetidine-1-carbonyl)-2-methylphenyl)quinoline-8-sulfonamide]
6 | 0.1 to 1 | Cc1cc(C(=O)N2CC(OC(=O)Nc3ccccn3)C2)ccc1NS(=O)(=O)c1cccc2cccnc12 [Compound 155, 1-(3-Methyl-4-(quinoline-8-sulfonamido)benzoyl)azetidin-3-yl pyridin-2-ylcarbamate]
7 | 0.1 to 1 | Cc1cc(C(=O)N2CC(NC(=O)c3ccccn3)C2)ccc1NS(=O)(=O)c1cccc2cccnc12 [Compound 103, N-(1-(3-Methyl-4-(quinoline-8-sulfonamido)benzoyl)azetidin-3-yl)picolinamide]
8 | 0.1 to 1 | COc1ncccc1NC1CN(C(=O)c2ccc(NS(=O)(=O)c3cccc4cccnc34)c(C)c2)C1 [Compound 148]

More lines, now with the values behind:

Row | SMILES | AC50 [µM]
9 | CC(C)NC(=O)NC1CN(C(=O)c2ccc(NS(=O)(=O)c3cccc4cccnc34)cc2)C1 [Compound 163] | 1 to 10
10 | Cc1cc(C(=O)N2CC(O)(Cc3ccccc3)C2)ccc1NS(=O)(=O)c1cccc2cccnc12 [Compound 131, N-(4-(3-benzyl-3-hydroxyazetidine-1-carbonyl)-2-methylphenyl) quinoline-8-sulfonamide] | < 0.1
11 | CN(c1ccccc1)C1CN(C(=O)c2ccc(NS(=O)(=O)c3cccc4cccnc34)cc2)C1 [Compound 122] | < 0.1
12 | CC(C)NC(=O)OC1CN(C(=O)c2ccc(NS(=O)(=O)c3cccc4cccnc34)c(F)c2)C1 [Compound 134, 1-(3-Fluoro-4-(quinoline-8-sulfonamido)benzoyl)azetidin-3-yl isopropylcarbamate] | 1 to 10
13 | COc1cc(NS(=O)(=O)c2cccc3cccnc23)ccc1C(=O)N1CC(O)(Cc2ccccc2)C1 [Compound 130, N-(4-(3-benzyl-3-hydroxyazetidine-1-carbonyl)-3-methoxyphenyl)quinoline-8-sulfonamide] | < 0.1
14 | COc1ccccc1NC1CN(C(=O)c2ccc(NS(=O)(=O)c3cccc4cccnc34)cc2)C1 [Compound 113] | < 0.1
